In patent publication US20140011853A1, “SUBSTITUTED 3-(BIPHENYL-3-YL)-8,8-DIFLUORO-4-HYDROXY-1-AZASPIRO[4.5]DEC-3-EN-2-ONES FOR THERAPY” (BAYER INTELLECTUAL PROPERTY GMBH, priority 2011, published 2014):
“And” between values parts separate entries of the source, which are not always exact repeats. Equal values may be shown once. Read-outs that look alike come from different tables or passages of the source.

Tests used:
[1] = reference substances with known distribution coefficients; cited from earlier work
PC3 = experiment: Tumour cell proliferation, CellTiter-Glo, 96-hour incubation, PC3; assay type: cell-based
Method: (§1) In accordance with the invention, the substances were tested in cell-based assays for the ability of the substances of inhibiting tumour cell proliferation after a 96-hour incubation with the substance. Cell viability was tested using the CellTiter-Glo® luminescent cell viability assay (Promega). The cells were sown at a density of 2000-5000 cells/well (depending on the cell line) in 100 μl growth medium on 96-well microtiter plates. For each cell line examined, cells were sown on a separate plate to determine the luminescence at t=0 hours and t=96 hours. After overnight incubation at 37° C., the luminescence values for the t=0 samples were determined. The dose plates for the t=96 hours points in time were treated with substances diluted with growth medium. The cells were then incubated at 37° C. for 96 hours, and the luminescence values for the t=96 hours samples were then determined. For data analysis, the t=0 values were subtracted from the t=96 hours values for treated and untreated samples. The differences in luminescence in percent between substance-treated samples and control values were used to determine the growth inhibition in percent.
(§2) The substances were tested in the following cell lines which represent the stated indications in an exemplary manner: […]

H460 = experiment: Tumour cell proliferation, CellTiter-Glo, 96-hour incubation, H460; assay type: cell-based
Method: as §1, §2

MCF7 = experiment: Tumour cell proliferation, CellTiter-Glo, 96-hour incubation, MCF7; assay type: cell-based
Method: as §1, §2

Myzus persicae = experiment: Myzus test (MYZUPE spray treatment); assay type: in vivo
Excerpt: Disks of Chinese cabbage (Brassica pekinensis) infested by all stages of the green peach aphid (Myzus persicae) are sprayed with an active compound formulation of the desired concentration.

human ACC2 = human ACC2 (Homo sapiens, UniProt O00763); experiment: Human ACC2 enzyme assay (ADP-Glo); conditions: ACC 2 IC50, individual measurements
Chain of human ACC2 (O00763 27-2458 limits assumed): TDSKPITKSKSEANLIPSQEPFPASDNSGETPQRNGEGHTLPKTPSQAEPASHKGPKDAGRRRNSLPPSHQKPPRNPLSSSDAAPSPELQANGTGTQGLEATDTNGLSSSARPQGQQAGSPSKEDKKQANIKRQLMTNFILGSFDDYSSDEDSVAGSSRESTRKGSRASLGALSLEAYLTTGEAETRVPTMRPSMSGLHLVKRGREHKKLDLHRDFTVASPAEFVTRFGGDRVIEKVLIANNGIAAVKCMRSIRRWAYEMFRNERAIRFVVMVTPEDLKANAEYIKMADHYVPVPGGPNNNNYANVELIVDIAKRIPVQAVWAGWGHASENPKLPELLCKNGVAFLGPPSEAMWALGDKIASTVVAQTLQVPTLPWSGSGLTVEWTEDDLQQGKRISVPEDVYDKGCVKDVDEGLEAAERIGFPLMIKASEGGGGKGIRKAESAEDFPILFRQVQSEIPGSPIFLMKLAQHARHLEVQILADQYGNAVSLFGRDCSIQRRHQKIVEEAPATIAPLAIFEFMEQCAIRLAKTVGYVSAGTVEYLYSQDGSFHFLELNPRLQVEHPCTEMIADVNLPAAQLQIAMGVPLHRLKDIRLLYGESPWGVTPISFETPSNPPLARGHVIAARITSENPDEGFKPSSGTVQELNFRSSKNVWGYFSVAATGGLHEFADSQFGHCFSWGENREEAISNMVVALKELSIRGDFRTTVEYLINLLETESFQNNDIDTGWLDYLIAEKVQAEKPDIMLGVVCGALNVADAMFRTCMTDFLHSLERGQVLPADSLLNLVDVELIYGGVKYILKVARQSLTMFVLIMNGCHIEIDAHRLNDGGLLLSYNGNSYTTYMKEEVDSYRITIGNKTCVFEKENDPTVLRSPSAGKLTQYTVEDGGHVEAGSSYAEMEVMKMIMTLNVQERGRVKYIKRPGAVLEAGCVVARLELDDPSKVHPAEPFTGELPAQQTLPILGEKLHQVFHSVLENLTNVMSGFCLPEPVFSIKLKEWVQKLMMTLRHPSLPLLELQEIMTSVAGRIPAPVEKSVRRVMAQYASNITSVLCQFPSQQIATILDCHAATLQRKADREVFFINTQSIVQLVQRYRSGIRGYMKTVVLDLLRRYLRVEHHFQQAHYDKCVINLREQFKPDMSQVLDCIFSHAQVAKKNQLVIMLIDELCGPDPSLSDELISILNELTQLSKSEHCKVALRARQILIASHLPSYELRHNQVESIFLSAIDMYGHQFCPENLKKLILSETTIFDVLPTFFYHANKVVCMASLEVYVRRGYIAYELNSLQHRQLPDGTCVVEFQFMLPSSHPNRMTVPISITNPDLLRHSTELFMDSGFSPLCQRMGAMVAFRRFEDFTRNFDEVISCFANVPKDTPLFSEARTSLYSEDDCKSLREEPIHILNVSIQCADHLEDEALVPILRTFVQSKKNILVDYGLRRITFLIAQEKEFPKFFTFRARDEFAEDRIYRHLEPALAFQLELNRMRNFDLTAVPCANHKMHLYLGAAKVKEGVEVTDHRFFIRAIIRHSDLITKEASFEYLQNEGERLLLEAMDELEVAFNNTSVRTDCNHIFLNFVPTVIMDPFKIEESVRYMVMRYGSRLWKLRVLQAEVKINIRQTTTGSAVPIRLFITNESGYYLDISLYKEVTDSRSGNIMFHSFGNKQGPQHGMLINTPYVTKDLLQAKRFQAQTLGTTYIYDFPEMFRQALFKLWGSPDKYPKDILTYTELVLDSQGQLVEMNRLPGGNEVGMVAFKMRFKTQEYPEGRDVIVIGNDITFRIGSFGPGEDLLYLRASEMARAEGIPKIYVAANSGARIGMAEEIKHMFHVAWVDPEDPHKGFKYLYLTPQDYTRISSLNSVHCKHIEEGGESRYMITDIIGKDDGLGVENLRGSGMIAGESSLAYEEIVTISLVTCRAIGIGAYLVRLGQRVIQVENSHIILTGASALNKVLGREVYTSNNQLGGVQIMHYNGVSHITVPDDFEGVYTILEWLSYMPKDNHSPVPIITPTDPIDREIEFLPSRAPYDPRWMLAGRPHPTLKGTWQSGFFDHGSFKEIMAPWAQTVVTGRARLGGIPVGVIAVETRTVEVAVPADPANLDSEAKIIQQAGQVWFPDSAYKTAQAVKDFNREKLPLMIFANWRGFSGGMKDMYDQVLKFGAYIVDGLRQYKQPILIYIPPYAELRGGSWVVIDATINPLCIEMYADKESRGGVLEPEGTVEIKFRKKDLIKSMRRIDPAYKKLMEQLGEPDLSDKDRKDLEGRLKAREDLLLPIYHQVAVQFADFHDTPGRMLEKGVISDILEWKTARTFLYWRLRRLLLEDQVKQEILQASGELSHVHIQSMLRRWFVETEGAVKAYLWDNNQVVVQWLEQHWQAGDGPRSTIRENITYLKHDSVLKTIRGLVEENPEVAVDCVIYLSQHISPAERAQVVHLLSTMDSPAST

Meloidogyne incognita = Meloidogyne incognita test (MELGIN); assay type: in vivo; conditions: 20 ppm, after 14 days
Method: • Solvent: 125 parts by weight of acetone
Containers are filled with sand, solution of active compound, Meloidogyne incognita egg/larvae suspension and lettuce seeds. The lettuce seeds germinate and the plants develop. On the roots, galls are formed. After 14 days, the nematicidal effect in % is determined by the formation of galls. 100% means that no galls have been found; 0% means that the number of galls on the treated plants corresponds to the untreated control.

Tetranychus urticae = experiment: Tetranychus test, OP-resistant (TETRUR spray treatment); assay type: in vivo
KM12 = experiment: Tumour cell proliferation, CellTiter-Glo, 96-hour incubation, KM12; assay type: cell-based
Method: as §1, §2

human ACC1 [2] = experiment: Human ACC1 enzyme assay (ADP-Glo); assay type: biochemical; conditions: for Ratio of IC50s ACC2/ACC1 (respective measurement): pairwise, same dilution series
human ACC1 [3] = target: T1, human ACC1 (Homo sapiens, UniProt Q13085); experiment: Human ACC1 enzyme assay (ADP-Glo); assay type: biochemical
T1 construct: FLAG (C); made in house; host or cells: baculovirus-infected insect cells (Hi5)

Phaedon cochleariae = experiment: Phaedon test (PHAECO spray treatment); conditions: 500 g/ha, after 7 days
Lucilia cuprina = Lucilia cuprina test (LUCICU); assay type: in vivo; conditions: 100 ppm, after 2 days
Excerpt: (§3) • Solvent: dimethyl sulphoxide
Vessels containing horse meat treated with the active compound preparation of the desired concentration are populated with about 20 Lucilia cuprina larvae.

Boophilus microplus = Boophilus microplus test (BOOPMI injection); assay type: in vivo; conditions: 20 μg/animal, after 7 days
Method: as §3
The solution of active compound is injected into the abdomen (Boophilus microplus), and the animals are transferred into dishes and kept in a climatized room. The activity is assessed by […] of fertile eggs.

Spodoptera frugiperda = Spodoptera frugiperda test (SPODFR spray treatment); assay type: in vivo; conditions: 500 g/ha, after 7 days
[4] = Plasma protein binding by equilibrium dialysis, human; assay type: in vitro ADME; conditions: read-out: fu (human)
Method: (§4) The binding of test substances to plasma proteins is determined by equilibrium dialysis by means of the Ht-dialysis apparatus (96-well) made of Teflon and a semipermeable membrane (regenerated cellulose, MWCO 12-14K). This separates 150 μl each of a plasma side and a buffer side (50 mM phosphate buffer). The test substance is added in 2 concentrations (usually 3 and 0.3 μM) to the plasma side and binds to plasma proteins. The unbound fraction of the test substance passes through the membrane and is distributed on either side until equilibrium is established (after approx. 6-8 h at 37° C.). The substance concentration on the buffer side and the plasma side is determined by LC-MS analysis. For this, both sides are brought by dilution with buffer or plasma to the same matrix (10% plasma) and then precipitated with methanol. The free (unbound) fraction (fu) is calculated from the quotient of the buffer and plasma concentration. Stability tests and recovery tests are run concurrently as controls. In addition, the substance in buffer is dialysed against buffer, to check the nonspecific binding to apparatus and membrane and establishment of equilibrium. Because during incubation the osmotic pressure of the plasma proteins leads to dilution of the plasma (volume shift), this possible error is determined by weighing blank plasma samples and is included in the calculation of fu. Establishment of equilibrium and plasma stability should have a value not lower than 80% and the recovery should be at least 30%. A free fraction of <1% is regarded as high, between 1 and 10% as moderate and >10% as low plasma protein binding.

[5] = target: human serum albumin (HSA) (Homo sapiens, UniProt P02768); experiment: Protein binding to human serum albumin (HSA-Transil)
Chain of human serum albumin (HSA) (P02768 25-609): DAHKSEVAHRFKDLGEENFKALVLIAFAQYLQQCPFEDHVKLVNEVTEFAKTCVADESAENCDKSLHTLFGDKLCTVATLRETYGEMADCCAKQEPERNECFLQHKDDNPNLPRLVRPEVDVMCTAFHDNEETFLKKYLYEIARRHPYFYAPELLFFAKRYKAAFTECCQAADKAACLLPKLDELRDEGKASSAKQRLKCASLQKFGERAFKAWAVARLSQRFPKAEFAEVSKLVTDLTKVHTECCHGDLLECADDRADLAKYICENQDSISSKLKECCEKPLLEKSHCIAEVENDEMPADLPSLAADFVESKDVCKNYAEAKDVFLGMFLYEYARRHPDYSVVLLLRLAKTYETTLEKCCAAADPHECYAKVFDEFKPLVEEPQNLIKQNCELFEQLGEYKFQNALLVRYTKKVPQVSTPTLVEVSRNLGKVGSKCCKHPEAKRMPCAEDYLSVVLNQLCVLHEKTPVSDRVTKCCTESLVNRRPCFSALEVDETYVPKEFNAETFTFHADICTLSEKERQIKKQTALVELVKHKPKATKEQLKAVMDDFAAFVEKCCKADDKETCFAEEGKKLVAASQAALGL

[6] = Plasma protein binding by equilibrium dialysis, mouse; assay type: in vitro ADME; conditions: read-out: fu (mouse)
Method: as §4

[7] = Octanol/water distribution coefficient (logP/D), isocratic HPLC method; assay type: physicochemical; conditions: pH 7.4
Excerpt: Assay for Determining the Octanol/Water Distribution Coefficient (logP/D):
The distribution coefficient octanol/water P or D is a key parameter for estimating membrane penetration and permeability. It is defined as the ratio of the equilibrium concentrations of a substance in the two-phase system octanol/water.
It is usually stated in form of the decadic logarithm (logP or logD).
logP describes the distribution behaviour of a substance exclusively present in its neutral form. logD describes the distribution behaviour of a substance at a certain pH; depending on the ionization constant pKa of the substance, some of the substance may be present in ionic form, and some in neutral form.
The logP/D of the active compounds was determined using an isocratic HPLC method (HPLC=high performance liquid chromatography) (literature: OECD Guideline for Testing of Chemicals No. 117). The method is based on the correlation of the HPLC retention time of the test substance to that of reference substances with known distribution coefficients.
The test substance was employed as a 10 mM solution in DMSO (DMSO=dimethyl sulphoxide). 10 μl of this solution were made up to 100 μl with a methanol/water mixture in a ratio of 7+3.
The nine reference substances were dissolved individually in methanol. 100 μl each of the stock solutions were added to an HPLC vial and mixed with 300 μl of water.
A formamide solution was used to determine the hold-up time. To this end, 7 mg of formamide were dissolved in 10 ml of methanol. 100 μl of this stock solution were mixed with 500 μl of methanol and 200 μl of water.
All solutions were chromatographed using a flow rate of 1.00 ml/min.
Injection Protocol: formamide, references, test substance 1, test substance 2, . . . , formamide, references.
Evaluation of the retention times was carried out in a diode array detector (DAD) at 200-400 nm Via the molecular mass, the identity of the test substance was checked using the downstream mass spectrometer.
The HPLC run was evaluated using the Waters software Masslynx 4.1.
The logP/D values were calculated using the software “POW Determination” (proprietary development).

[8] = Membrane affinity logMA (MA-Transil); assay type: physicochemical; conditions: buffer pH 7.4
[9] = Plasma protein binding by equilibrium dialysis, rat; assay type: in vitro ADME; conditions: read-out: fu (rat)
Method: as §4

plasma proteins = experiment: Plasma protein binding by equilibrium dialysis, mouse; assay type: in vitro ADME
Method: as §4

[10] = Homo sapiens, MCF7, 96 h, read-out: MCF7 IC50
[11] = ACC 1 IC50, individual measurements
[12] = Homo sapiens, MCF7, 96 h; read-out: MCF7 IC50

| SMILES | IC50 (MCF7; [10]) | IC50 (human ACC2) | nematicidal effect (formation of galls) (Meloidogyne incognita) | Selectivity ACC1 vs. ACC2 (mean of the individual measurements ± standard deviation) (human ACC1 [2]) | Ratio of IC50s ACC2/ACC1 (respective measurement) (human ACC1 [2]) | IC50 (human ACC1 [3]; [11]) | IC50 (MCF7; [12]) | fraction unbound [4] | Kd [5] | fraction unbound [6] | chromatographic logP [7] | logMA [8] | fraction unbound [9] | other results |
| --- | --- | --- | --- | --- | --- | --- | --- | --- | --- | --- | --- | --- | --- | --- |
| Clc1ccc(C(c2ccc(Cl)cc2)C(Cl)(Cl)Cl)cc1 [DDT] |  |  |  |  |  |  |  |  |  |  |  |  |  | log P [1]: 6.2 |
| Cc1ccc(-c2ccc(Cl)cc2)c(C)c1C1=C(O)C2(CCC(F)(F)CC2)NC1=O [Example 1-5, 3-(4′-Chloro-2,4-dimethylbiphenyl-3-yl)-8,8-difluoro-4-hydroxy-1-azaspiro[4.5]dec-3-en-2-one] | 205 nM | 2700 nM | 100% | 12.4 | 12.4 | 218 nM |  |  |  |  |  |  |  | IC50 (PC3; Homo sapiens, PC-3, 96 h, read-out: PC3 IC50): 506 nM; IC50 (H460; Homo sapiens, NCI-H460, 96 h, read-out: H460 IC50): 769 nM; melting point: 141 to 145 °C; pest or weed control at 500 g/ha (Myzus persicae; Myzus persicae, 144 h, read-out: effect (kill of aphids)): 100%; pest or weed control at 100 g/ha (Tetranychus urticae; Tetranychus urticae, 144 h, read-out: effect (kill of spider mites)): 90%; IC50 (KM12; Homo sapiens, KM12, 96 h, read-out: KM12 IC50): 668 nM |
| Cc1ccc(-c2ccc(F)cc2)c(C)c1C1=C(O)C2(CCC(F)(F)CC2)NC1=O [Example I-1-a-2] |  |  | 100% |  |  |  |  |  |  |  |  |  |  | effect (kill of beetle larvae) (Phaedon cochleariae): 100%; effect (kill of aphids) (Myzus persicae; 500 g/ha, after 6 days): 100%; kill of larvae (Lucilia cuprina): 100%; effect (no fertile eggs) (Boophilus microplus): 80%; effect (kill of caterpillars) (Spodoptera frugiperda): 100%; effect (kill of spider mites) (Tetranychus urticae; 500 g/ha, after 6 days): 100% |
| Cc1ccc(-c2ccc(Cl)c(F)c2)cc1C1=C(O)C2(CCCCC2)NC1=O [V.1-b, 3-(4′-Chloro-3′-fluoro-4-methylbiphenyl-3-yl)-4-hydroxy-1-azaspiro[4.5]dec-3-en-2-one, reference compound] |  | 1950 nM |  | 46.9 | 45.9 |  | 22 nM | 0.004 | 3.5 µM | 0.0746 | 2.8 | 2.55 (2.4-2.9, n = 4) | 0.0612 | IC50 (human ACC1 [3]; individual measurements, read-out: ACC 1 IC50): 43 nM |
| Cc1ccc(-c2ccc(Cl)cc2)cc1C1=C(O)[C@]2(CC[C@H](C(F)(F)F)CC2)NC1=O [V.2-a, (5s,8s)-3-(4′-Chloro-4-methylbiphenyl-3-yl)-4-hydroxy-8-(trifluoromethyl)-1-azaspiro[4.5]dec-3-en-2-one, reference compound] |  | 1220 nM and 940 nM |  | 9.8 ± 1.4 | 11.2 and 8.4 |  | 35 nM |  |  |  | 2.23 | 2.38 (2.0-2.7, n = 4) |  | IC50 (PC3; Homo sapiens, PC-3, 96 h; read-out: PC3 IC50): 38 nM; IC50 (H460; Homo sapiens, NCI-H460, 96 h; read-out: H460 IC50): 57 nM; Kd at 0.25 μmol/liter ([5]; human, pH 7.4): 3.07 µM; fu (mouse) (plasma proteins): 2.41%; IC50 (KM12; Homo sapiens, KM12, 96 h; read-out: KM12 IC50): 37 nM |
| Cc1ccc(-c2ccc(Cl)cc2)cc1C1=C(O)C2(CCCCC2)NC1=O [V.2-b, 3-(4′-Chloro-4-methylbiphenyl-3-yl)-4-hydroxy-1-azaspiro[4.5]dec-3-en-2-one, reference compound] | 41 nM | 2400 nM and 2760 nM |  | 12.8 ± 1.3 | 11.5 and 14.1 | 208 nM and 196 nM |  | 0.0036 | 3.22 µM | 0.0281 | 2.77 | 2.05 (1.9-2.2, n = 2) | 0.0071 |  |
